# Reference: patent US20260315446A1, “ANTIFUNGAL COMPOUNDS AND USES THEREOF” (priority 2023, published 2026)
# “Also recorded” adds a separate entry of the source.
# What was measured:
# [1] = In vivo tolerability of JH-FK-05; parameters: species or system mouse; conditions: daily i.p., up to 60 mg/kg
# Procedure: Based on the in vitro evidence of reduced immunosuppressive activity of JH-FK-05, it was hypothesized that this reduction would translate into reduced immunosuppression in an in vivo model. The murine model for immunosuppression measures the T cell-dependent proliferation of two immune cell subtypes in response to immunization with an antigen. Animals were treated daily via intraperitoneal (i.p.) injection with vehicle, 5 mg/kg FK506, or 60 mg/kg JH-FK-05, beginning on day −1 and ending on day 7. […] On day 0, animals were immunized with NP-OVA to stimulate T cell-dependent signaling that would result in proliferation of T follicular helper (Tfh) cells and germinal center (GC) B cells. Animals were sacrificed on day 7, and the proportions of Tfh and GC B cells in the lymph nodes were measured. […]
# Groups of 6 female C57BL/6 mice (Jackson Laboratory) were treated daily by intraperitoneal (i.p.) injection with about 100 μL vehicle, 5 mg/kg FK506, or 60 mg/kg JH-FK-05 beginning on day −1. […] Mice were treated and monitored daily until they were sacrificed on day 7. Draining lymph nodes were harvested on day 7, and the populations of T follicular helper cells and GC B cells were analyzed by flow cytometry. Tfh and GC B cells were measured from T Cell Receptor β (TCRβ^+) CD4^+CD44^hi cells and TCRβ^−CD19^+ cells, respectively.
# C. neoformans strain H99 = assay: Murine cryptococcal infection, spleen fungal burden (Example 3); format: in vivo, Cryptococcus neoformans in A/J mice; conditions: 14 days; fluconazole 6 mg/kg, JH-FK-08 40 mg/kg, i.p. twice per day
# Procedure: In vivo antifungal activity and therapeutic benefit were assayed by investigating the impact of the FK520 analog on organ fungal burden during cryptococcosis. Specifically, the in vivo efficacy of JH-FK-08 on fungal burden was assessed using A/J female mice. Immunodeficient A/J mice were selected in part due to their defect in complement component five and their susceptibility to cryptococcal infection. Treatment groups included vehicle of 10% Kolliphor: ethanol (1:1) in phosphate-buffered saline (PBS), 6 mg/kg fluconazole, 40 mg/kg JH-FK-08, or the fluconazole and JH-FK-08 combination, all given via intraperitoneal (i.p.) injection twice per day beginning at 4 hours post infection. […] Mice were intranasally infected with C. neoformans strain H99, and fungal burden in the lung, spleen, and brain was assessed after 14 days of treatment.
# C. neoformans inoculum was prepared by growing a 5-mL overnight YPD culture spinning in a tissue culture roller drum at 30° C. Cells were pelleted by centrifugation and washed in sterile PBS three times. Cell density was determined by hemocytometer, and cells were diluted to 2×10^6 cells/mL. Mice (10 to 20 g) were infected with 10^5 cells of C. neoformans H99. […] Following inhalation of the inoculum, animals were monitored for post anesthesia recovery. […] Fungal burden was assessed 24 h after the final dose. […]
# [2] = system: Cryptococcus deneoformans; assay: MIC assay (Example 3); format: cell-based; conditions: 72 hours with 5 times starting amount of cells
# Procedure: For the lead compound JH-FK-08, the mechanism of action resulting in antifungal activity was tested for conservation of calcineurin inhibition. To probe the JH-FK-08 mechanism of action, MICs of JH-FK-08 were determined with fungal mutants that lack the drug-binding protein FKBP12 or have mutations in the binding site on calcineurin that prevent FKBP12-FK506 binding and inhibition. […] Taken together, these findings support the hypothesis that JH-FK-08 requires FKBP12 for antifungal activity, and the target of the FKBP12-JH-FK-08 complex is calcineurin. The length of time that drugs are active in vivo is critical information relevant to drug development, and the time frame of drug activity can have a drastic impact on treatment regimen and efficacy. Therefore, the pharmacokinetic profiles of FK506 and JH-FK-08 were investigated. Three male and three female CD1 mice were administered a single dose of JH-FK-08 or FK506 at 40 mg/kg. Whole blood samples were taken over a 24-hour period, and the drug concentration remaining in the blood was determined. Pharmacokinetic parameters were calculated using a non-compartmental approach (see, Gabrielsson J, Weiner D. 2012. Methods Mot Biol Clifton NJ 929:377-389). […] When assessing specific pharmacokinetic measures, sex differences began to emerge.
# In vitro antifungal activity was assessed for all fungal strains in RPMI 1640 (Sigma-Aldrich R1383). MICs were measured using Clinical and Laboratory Standards Institute (CLSI) M38-A2 and M27-A3 standard in vitro antifungal susceptibility protocols. C. neoformans and A. fumigatus testing was performed at 37° C. MECs for A. fumigatus were recorded after 48 h of growth. C. albicans testing was performed at 30° C. with a uniform concentration of 2 μg/mL of fluconazole to sensitize the cells to calcineurin inhibition.
# C. neoformans clinical isolate H99 and congenic-derived strain KN99α were used (see, Nielsen K, et al., 2003. Infect Immun 71:4831-4841). […]
# [3] = in vivo; cited from earlier work
structure (smiles),measurement,setting,value
CC[C@@H]1/C=C(\C)C[C@H](C)C[C@H](OC)[C@H]2O[C@@](O)(C(=O)C(=O)N3CCCC[C@H]3C(=O)O[C@H](/C(C)=C/[C@@H]3CC[C@@H](O)[C@H](OC)C3)[C@H](C)[C@@H](O)C/C1=N/NC(C)=O)[C@H](C)C[C@@H]2OC [JH-FK-05],tolerability,[1],tolerated at a dose as high as 60 mg/kg; also recorded: well tolerated by animals throughout the course of treatment; also recorded: animals tolerated JH-FK-05 treatment for the full treatment period
CC[C@@H]1/C=C(\C)C[C@H](C)C[C@H](OC)[C@H]2O[C@@](O)(C(=O)C(=O)N3CCCC[C@H]3C(=O)O[C@H](/C(C)=C/C3CC[C@@H](O)[C@H](OC)C3)[C@H](C)[C@@H](O)C/C1=N/NC(=O)OC)[C@H](C)C[C@@H]2OC (stereo partly drawn) [JH-FK-08],spleen fungal burden,C. neoformans strain H99,no detectable fungal burden
same,MIC/MEC,[2]; strain C21F2 (JEC21 CNB1-1),>25 µg/mL
same,MIC/MEC,[2]; strain C21F3 (JEC21 frr1),>25 µg/mL
same,MIC/MEC,[2]; strain JEC21,<0.4 µg/mL
"C=CCC1C=C(C)CC(C)CC(OC)C2OC(O)(C(=O)C(=O)N3CCCCC3C(=O)OC(C(C)=CC3CCC(O)C(OC)C3)C(C)C(O)CC1=O)C(C)CC2OC (stereo not drawn) [FK506, reference compound]",blood brain barrier crossing,[3],known to cross the blood brain barrier
